Blank lines part the entries; values can stand above or below the compound they belong to.
What was measured:
[1] = target: Dihydroorotate dehydrogenase (quinone), mitochondrial (Homo sapiens, UniProt Q02127); assay: (§1) Enzymatic Assays: Type 2 DHODH activity was monitored with either the direct assay measuring the formation of orotate or via a chromogen reduction assay using DCIP. Although the extinction coefficient and absorption wavelength are preferable for the chromogen reduction assay, the […] electron acceptor DCIP can be utilized by DHODH as the final electron acceptor in lieu of CoQn when the endogenous substrate is at a low concentration. As such, the direct assay was used to measure the binding affinity of pfDHODH to CoQD and L-DHO. The enzymatic reaction was performed by varying the L-DHO concentration (1-400 μM) or CoQD concentration (1-200 μM) while keeping the other substrate constant and in excess. Inhibition of DHODH by small molecules was evaluated using the chromogen based assay with a final substrate concentration of 200 μM L-DHO, 18 μM CoQD, and 100 μM DCIP, unless otherwise noted.
[2] = target: T1, Dihydroorotate dehydrogenase, mitochondrial, putative (Plasmodium vivax (strain Salvador I), UniProt A5K1N1); assay: as §1
T1 sequence (A5K1N1 whole entry): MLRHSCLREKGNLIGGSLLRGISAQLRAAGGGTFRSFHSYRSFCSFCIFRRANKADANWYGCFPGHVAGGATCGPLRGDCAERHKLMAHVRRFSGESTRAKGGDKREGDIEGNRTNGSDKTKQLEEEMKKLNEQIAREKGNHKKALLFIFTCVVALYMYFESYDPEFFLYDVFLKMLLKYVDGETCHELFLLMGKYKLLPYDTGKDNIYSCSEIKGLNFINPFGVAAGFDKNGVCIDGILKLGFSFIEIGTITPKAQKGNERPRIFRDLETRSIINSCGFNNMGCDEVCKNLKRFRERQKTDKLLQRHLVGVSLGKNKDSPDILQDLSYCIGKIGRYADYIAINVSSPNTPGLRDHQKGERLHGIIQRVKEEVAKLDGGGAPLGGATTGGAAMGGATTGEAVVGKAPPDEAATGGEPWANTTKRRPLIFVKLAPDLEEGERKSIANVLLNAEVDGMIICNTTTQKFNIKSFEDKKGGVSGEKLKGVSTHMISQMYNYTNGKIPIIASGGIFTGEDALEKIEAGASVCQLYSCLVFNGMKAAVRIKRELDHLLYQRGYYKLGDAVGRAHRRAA

[3] = target: T2, Dihydroorotate dehydrogenase (fumarate) (Saccharomyces cerevisiae S288c, UniProt P28272); assay: as §1
T2 sequence (P28272 whole entry): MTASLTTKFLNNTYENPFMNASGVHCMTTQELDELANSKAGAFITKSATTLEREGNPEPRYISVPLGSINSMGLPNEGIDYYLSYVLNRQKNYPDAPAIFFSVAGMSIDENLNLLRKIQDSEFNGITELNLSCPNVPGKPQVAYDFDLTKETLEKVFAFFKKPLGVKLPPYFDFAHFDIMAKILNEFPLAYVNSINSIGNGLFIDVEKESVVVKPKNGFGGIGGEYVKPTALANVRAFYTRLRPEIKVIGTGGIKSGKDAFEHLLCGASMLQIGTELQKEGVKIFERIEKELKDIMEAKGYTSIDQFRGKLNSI

Sequence of Dihydroorotate dehydrogenase (quinone), mitochondrial (Q02127 whole entry): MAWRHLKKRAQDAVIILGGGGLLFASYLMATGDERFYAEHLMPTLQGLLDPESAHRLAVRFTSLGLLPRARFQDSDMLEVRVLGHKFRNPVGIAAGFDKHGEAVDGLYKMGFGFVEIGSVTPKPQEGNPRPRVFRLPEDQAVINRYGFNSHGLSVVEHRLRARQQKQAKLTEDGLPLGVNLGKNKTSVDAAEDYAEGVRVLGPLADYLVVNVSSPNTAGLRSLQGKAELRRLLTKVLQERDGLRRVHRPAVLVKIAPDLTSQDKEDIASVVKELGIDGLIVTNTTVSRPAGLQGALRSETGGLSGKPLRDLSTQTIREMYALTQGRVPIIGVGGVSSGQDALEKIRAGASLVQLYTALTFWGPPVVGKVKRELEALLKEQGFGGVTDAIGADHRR

IC50 [1]: > 30 µM
Compound: CCCNC(=O)c1ccc(N2CCN(C)CC2)s1

Compound: Fc1cc(I)ccc1Nc1ccnc2cc(Cl)ccc12
IC50 [2]: > 10 µM
IC50 [3]: > 10 µM
IC50 [1]: > 30 µM

Compound: Cc1ccccc1/C=C/c1cc(O)c2ccccc2n1
IC50 [2]: 5.6 µM

Compound: CCCCCC1CCCc2c1nc1ccccc1c2O (configuration not stated)
IC50 [3]: > 10 µM

Compound: CCOC(=O)c1[nH]c(C)c(Cc2ccc(OCC)cc2)c1C
IC50 [3]: > 10 µM

Reference: ChEMBL document CHEMBL3639068, “Small molecule inhibitors of Plasmodium falciparum dihydroorotate dehydrogenase” (2014)
